Measurements as given in US5650394A, “Use of urinastatin-like compounds to prevent premature delivery” (Adeza Biomedical, priority 1993, dated 1997).

B1: urinastatin (protein, UniProt P02760 206-352, looked up)
Inter-alpha-trypsin inhibitor …: AVLPQEEEGSGGGQLVTEVTKKEDSCQLGYSAGPCMGMTSRYFYNGTSMACETFQYGGCMGNGNNFVTEKECLQTCRTVAACNLPIVRGPCRAFIQLWAFDAVKGKCVLFPYGGCQGNGNKFYSEKECREYCGVPGDGDEELLRFSN
modifications: Inter-alpha-trypsin inhibitor light chain
notes: glycoprotein of less than about 67 kD purified from human urine

Legend:
[1] = Example 2 clinical comparison of regimens in 168 patients with imminent premature delivery; format: in vivo, human
Protocol: 168 patients in their 24th to 35 week of pregnancy were diagnosed with imminent premature delivery. The diagnosis of imminent premature delivery was based on a tocolysis index of 2 or greater. Factors of cervical dilation, ruptured membranes, uterine activity and vaginal bleeding were considered for the tocolysis index. The index is the sum of these points.
A number of regimens were compared. Group 1 received ritodrine intravenous infusion at 50-300 μg per day. Groups 2 and 3 were given daily urinastatin suppositories containing 5000 units and 1000 units, respectively. Group 4 received IV ritodrine at 50-300 μg per day and one 1000 unit urinastatin suppository per day. Group 5 received IV ritodrine at 50-300 μg per day, one 1000 unit urinastatin suppository per day, and cephalosporin. The patients were treated until they delivered.
The tocolysis index immediately before the start of treatment varied from 2-8. Elastase levels obtained from specimen of endocervical secretions were determined at admission to the study. "Hours to Neg UA", or the time until the number of uterine contractions in 30 minutes decreased to one or less, was reported. "Recur UA", or the proportion of women experiencing recurrence of at least one uterine contraction every 30 minutes after therapy lasting 4 days or longer was discontinued also was observed. "EGA Toco" is the estimated gestational age at the beginning of therapy. "EGA Del" is the estimated gestational age at delivery. The "interval" is the number of weeks between EGA Toco and EGA Del. "PTD<37 Wks" is the number of preterm births before 37 weeks. "PTD<34 Wks" is the number of preterm births before 34 weeks, or seriously premature infants.

[2] = cited from earlier work; for time required for the number of uterine contractions (UC) to decrease to less than 1 per 30 minutes: 24th-35th weeks of pregnancy, tocolysis index 3-4, no PROM
granulocyte elastase = conditions: patients treated with urinastatin (groups B, C and D); cited from earlier work

Row | Molecule | preterm deliveries of less than 34 wk, share of all deliveries ([1]; PTD<34 Wks) | preterm deliveries of less than 37 wk, share of all deliveries ([1]; PTD<37 Wks) [%] | rate of recurrence of uterine activity ([1]; in spite of continuous administration of the drug) | Hours to Neg UA: time until uterine contractions in 30 minutes decreased to one or less ([1]; study average 3.1 hr) [h] | patients with recurrence of UC after therapy was discontinued ([2]; therapy discontinued when UC had been depressed for 4 days) | time required for the number of uterine contractions (UC) to decrease to less than 1 per 30 minutes ([2]; women) | women with premature deliveries ([2]; women, 24th-35th weeks, tocolysis index 3-4) [%] | elastase in vaginal secretions (granulocyte elastase) | premature deliveries (number of patients) ([2]; groups B and D had 9 and 8 patients, group C 14)
1 | CC(NCCc1ccc(O)cc1)C(O)c1ccc(O)cc1 (stereo not shown) [ritodrine] | approximately 21% | ~42 | over 30% | 1.4 | Approximately 60% | about an hour | 25 | – | –
2 | B1 | – | – | – | – | – | about 6 hours | – | decreased | no premature deliveries
